# Test system: not listed separately
# Assay: DRUGMATRIX: Potassium Channel [KATP] radioligand binding (ligand: [3H] Glyburide)
# Assay type: cell membranes, Membrane
# Details: hit-t15; Not Active = under 50% inhibition at 10 µM
SMILES,IC50,Ki
COC(=O)Nc1nc2cc(C(=O)c3ccc(F)cc3)ccc2[nH]1 [FLUBENDAZOLE],Not Active,Not Active
CC(=O)OCC(=O)[C@@]1(O)CC[C@H]2[C@@H]3CCC4=CC(=O)CC[C@]4(C)[C@@]3(F)[C@@H](O)C[C@@]21C [FLUDROCORTISONE ACETATE],Not Active,Not Active
CCOC(=O)c1ncn2c1CN(C)C(=O)c1cc(F)ccc1-2 [FLUMAZENIL],Not Active,Not Active
CC(=O)OCC(=O)[C@@]12OC(C)(C)O[C@@H]1C[C@H]1[C@@H]3C[C@H](F)C4=CC(=O)C=C[C@]4(C)[C@@]3(F)[C@@H](O)C[C@@]12C [FLUOCINONIDE],Not Active,Not Active
O=C(O)P(=O)(O)O [FOSCARNET],Not Active,Not Active
Cc1ccc(C)c(OCCCC(C)(C)C(=O)O)c1 [GEMFIBROZIL],Not Active,Not Active
O=c1c(-c2ccc(O)cc2)coc2cc(O)cc(O)c12 [GENISTEIN],Not Active,Not Active

# Test system: not listed separately
# Assay: DRUGMATRIX: Imidazoline I2, Central radioligand binding (ligand: [3H] Idazoxan)
# Assay type: cell membranes, Rattus norvegicus, Wistar, Cerebral cortex, Membrane
# Details: Not Active = under 50% inhibition at 10 µM
SMILES,IC50,Ki
COC(=O)Nc1nc2cc(C(=O)c3ccc(F)cc3)ccc2[nH]1 [FLUBENDAZOLE],Not Active,Not Active
CC(=O)OCC(=O)[C@@]1(O)CC[C@H]2[C@@H]3CCC4=CC(=O)CC[C@]4(C)[C@@]3(F)[C@@H](O)C[C@@]21C [FLUDROCORTISONE ACETATE],Not Active,Not Active
CCOC(=O)c1ncn2c1CN(C)C(=O)c1cc(F)ccc1-2 [FLUMAZENIL],Not Active,Not Active
CC(=O)OCC(=O)[C@@]12OC(C)(C)O[C@@H]1C[C@H]1[C@@H]3C[C@H](F)C4=CC(=O)C=C[C@]4(C)[C@@]3(F)[C@@H](O)C[C@@]12C [FLUOCINONIDE],Not Active,Not Active
O=C(O)P(=O)(O)O [FOSCARNET],Not Active,Not Active
Cc1ccc(C)c(OCCCC(C)(C)C(=O)O)c1 [GEMFIBROZIL],Not Active,Not Active
O=c1c(-c2ccc(O)cc2)coc2cc(O)cc(O)c12 [GENISTEIN],Not Active,Not Active

# Target: T1, Calcitonin receptor (Homo sapiens, UniProt P30988); further: in other assays of this panel Not Active means under 50% inhibition at 10 µM
# T1 sequence (P30988 whole entry): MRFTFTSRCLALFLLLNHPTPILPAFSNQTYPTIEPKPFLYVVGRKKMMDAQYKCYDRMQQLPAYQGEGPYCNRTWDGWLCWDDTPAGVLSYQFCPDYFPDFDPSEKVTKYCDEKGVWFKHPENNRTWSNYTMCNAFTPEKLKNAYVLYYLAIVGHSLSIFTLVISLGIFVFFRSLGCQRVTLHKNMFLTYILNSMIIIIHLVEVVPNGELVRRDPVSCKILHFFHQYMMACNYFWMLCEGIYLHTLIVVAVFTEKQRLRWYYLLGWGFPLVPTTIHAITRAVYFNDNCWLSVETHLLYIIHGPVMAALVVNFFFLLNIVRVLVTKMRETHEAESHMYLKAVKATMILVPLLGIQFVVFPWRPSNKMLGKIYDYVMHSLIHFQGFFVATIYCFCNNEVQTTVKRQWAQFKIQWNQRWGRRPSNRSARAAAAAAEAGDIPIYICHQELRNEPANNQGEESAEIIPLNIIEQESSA
# Assay: not given
# Assay type: cell membranes, Membrane
# Details: t47d
row,SMILES,IC50
1,COC(=O)Nc1nc2cc(C(=O)c3ccc(F)cc3)ccc2[nH]1 [FLUBENDAZOLE],Not Active
2,CC(=O)OCC(=O)[C@@]1(O)CC[C@H]2[C@@H]3CCC4=CC(=O)CC[C@]4(C)[C@@]3(F)[C@@H](O)C[C@@]21C [FLUDROCORTISONE ACETATE],Not Active
3,CCOC(=O)c1ncn2c1CN(C)C(=O)c1cc(F)ccc1-2 [FLUMAZENIL],Not Active
4,CC(=O)OCC(=O)[C@@]12OC(C)(C)O[C@@H]1C[C@H]1[C@@H]3C[C@H](F)C4=CC(=O)C=C[C@]4(C)[C@@]3(F)[C@@H](O)C[C@@]12C [FLUOCINONIDE],Not Active
5,O=C(O)P(=O)(O)O [FOSCARNET],Not Active
6,Cc1ccc(C)c(OCCCC(C)(C)C(=O)O)c1 [GEMFIBROZIL],Not Active
7,O=c1c(-c2ccc(O)cc2)coc2cc(O)cc(O)c12 [GENISTEIN],Not Active

# Target: Sodium-dependent noradrenaline transporter (Homo sapiens, UniProt P23975)
# Sequence (P23975 whole entry): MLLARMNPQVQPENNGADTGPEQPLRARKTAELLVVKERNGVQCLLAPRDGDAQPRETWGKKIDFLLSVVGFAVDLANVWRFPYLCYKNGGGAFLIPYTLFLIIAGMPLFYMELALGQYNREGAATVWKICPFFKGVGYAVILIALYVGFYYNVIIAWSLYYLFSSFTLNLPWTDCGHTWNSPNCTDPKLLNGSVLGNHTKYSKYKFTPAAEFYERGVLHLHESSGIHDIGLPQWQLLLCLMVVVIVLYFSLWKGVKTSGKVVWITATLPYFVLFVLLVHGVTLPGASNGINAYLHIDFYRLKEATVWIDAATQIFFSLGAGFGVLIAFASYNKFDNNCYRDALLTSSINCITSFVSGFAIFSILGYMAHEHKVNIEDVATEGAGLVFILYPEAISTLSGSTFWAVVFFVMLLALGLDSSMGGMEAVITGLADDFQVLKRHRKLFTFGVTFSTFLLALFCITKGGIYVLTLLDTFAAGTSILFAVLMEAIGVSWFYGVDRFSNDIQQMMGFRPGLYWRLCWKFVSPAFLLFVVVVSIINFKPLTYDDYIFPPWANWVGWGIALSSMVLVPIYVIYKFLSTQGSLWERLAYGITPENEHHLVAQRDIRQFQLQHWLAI
# Assay: DRUGMATRIX: Norepinephrine Transporter radioligand binding (ligand: [125I] RTI-55)
# Assay type: cell membranes, MDCK, Membrane
# Details: mdck; Not Active = under 50% inhibition at 10 µM
row,SMILES,IC50
1,COC(=O)Nc1nc2cc(C(=O)c3ccc(F)cc3)ccc2[nH]1 [FLUBENDAZOLE],Not Active
2,CC(=O)OCC(=O)[C@@]1(O)CC[C@H]2[C@@H]3CCC4=CC(=O)CC[C@]4(C)[C@@]3(F)[C@@H](O)C[C@@]21C [FLUDROCORTISONE ACETATE],Not Active
3,CCOC(=O)c1ncn2c1CN(C)C(=O)c1cc(F)ccc1-2 [FLUMAZENIL],Not Active
4,CC(=O)OCC(=O)[C@@]12OC(C)(C)O[C@@H]1C[C@H]1[C@@H]3C[C@H](F)C4=CC(=O)C=C[C@]4(C)[C@@]3(F)[C@@H](O)C[C@@]12C [FLUOCINONIDE],Not Active
5,O=C(O)P(=O)(O)O [FOSCARNET],Not Active
6,Cc1ccc(C)c(OCCCC(C)(C)C(=O)O)c1 [GEMFIBROZIL],Not Active
7,O=c1c(-c2ccc(O)cc2)coc2cc(O)cc(O)c12 [GENISTEIN],Not Active

# Test system: not listed separately
# Assay: DRUGMATRIX: Platelet-Derived Growth Factor (PDGF) radioligand binding (ligand: [125I] PDGF)
# Assay type: cell-based
# Details: nih3t3; Not Active = under 50% inhibition at 10 µM
SMILES,IC50,Ki
COC(=O)Nc1nc2cc(C(=O)c3ccc(F)cc3)ccc2[nH]1 [FLUBENDAZOLE],Not Active,Not Active
CC(=O)OCC(=O)[C@@]1(O)CC[C@H]2[C@@H]3CCC4=CC(=O)CC[C@]4(C)[C@@]3(F)[C@@H](O)C[C@@]21C [FLUDROCORTISONE ACETATE],Not Active,Not Active
CCOC(=O)c1ncn2c1CN(C)C(=O)c1cc(F)ccc1-2 [FLUMAZENIL],Not Active,Not Active
CC(=O)OCC(=O)[C@@]12OC(C)(C)O[C@@H]1C[C@H]1[C@@H]3C[C@H](F)C4=CC(=O)C=C[C@]4(C)[C@@]3(F)[C@@H](O)C[C@@]12C [FLUOCINONIDE],Not Active,Not Active
O=C(O)P(=O)(O)O [FOSCARNET],Not Active,Not Active
Cc1ccc(C)c(OCCCC(C)(C)C(=O)O)c1 [GEMFIBROZIL],Not Active,Not Active
O=c1c(-c2ccc(O)cc2)coc2cc(O)cc(O)c12 [GENISTEIN],Not Active,Not Active

# Target: T2, Interstitial collagenase (Homo sapiens, UniProt P03956);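 further: MMP-1 enzyme inhibition assay using a peptide substrate; in other assays of this panel Not Active means under 50% inhibition at 10 µM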
# T2 sequence (P03956 whole entry): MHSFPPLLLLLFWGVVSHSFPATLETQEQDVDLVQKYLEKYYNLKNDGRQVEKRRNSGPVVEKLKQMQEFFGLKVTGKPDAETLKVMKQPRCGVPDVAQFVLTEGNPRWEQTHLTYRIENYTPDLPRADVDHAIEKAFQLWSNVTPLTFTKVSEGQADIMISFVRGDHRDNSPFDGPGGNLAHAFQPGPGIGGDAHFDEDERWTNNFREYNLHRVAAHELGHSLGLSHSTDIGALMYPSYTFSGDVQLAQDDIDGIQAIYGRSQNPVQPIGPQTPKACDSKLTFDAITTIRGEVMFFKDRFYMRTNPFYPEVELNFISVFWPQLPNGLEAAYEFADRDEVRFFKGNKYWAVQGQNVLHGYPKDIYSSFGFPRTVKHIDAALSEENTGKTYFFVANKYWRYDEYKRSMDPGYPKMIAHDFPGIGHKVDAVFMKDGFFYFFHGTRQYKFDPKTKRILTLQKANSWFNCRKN
# Assay: biochemical
# Assay type: tissue-based, Rheumatoid synovial fibroblasts
# Details: not given
row,SMILES,IC50
1,COC(=O)Nc1nc2cc(C(=O)c3ccc(F)cc3)ccc2[nH]1 [FLUBENDAZOLE],Not Active
2,CC(=O)OCC(=O)[C@@]1(O)CC[C@H]2[C@@H]3CCC4=CC(=O)CC[C@]4(C)[C@@]3(F)[C@@H](O)C[C@@]21C [FLUDROCORTISONE ACETATE],Not Active
3,CCOC(=O)c1ncn2c1CN(C)C(=O)c1cc(F)ccc1-2 [FLUMAZENIL],Not Active
4,CC(=O)OCC(=O)[C@@]12OC(C)(C)O[C@@H]1C[C@H]1[C@@H]3C[C@H](F)C4=CC(=O)C=C[C@]4(C)[C@@]3(F)[C@@H](O)C[C@@]12C [FLUOCINONIDE],Not Active
5,O=C(O)P(=O)(O)O [FOSCARNET],Not Active
6,Cc1ccc(C)c(OCCCC(C)(C)C(=O)O)c1 [GEMFIBROZIL],Not Active
7,O=c1c(-c2ccc(O)cc2)coc2cc(O)cc(O)c12 [GENISTEIN],Not Active
